# Data taken from US20230049952A1, “METHODS AND COMPOUNDS FOR RESTORING MUTANT P53 FUNCTION” (PMV Pharmaceuticals, Inc., priority 2020, published 2023).
# Target: p53 Y220C in MT373 tumors (Homo sapiens, UniProt P04637, Y220C)
# Experiment: MT373 syngeneic sarcoma model: mutant, WT and total p53 ELISA in tumors
# Format: in vivo, mouse
# Settings: for Mutant p53 Protein, Percent Reduction Relative to Vehicle Control / Total p53 Protein, Percent Reduction Relative to Vehicle Control / WT p53 Protein, Fold Change over Vehicle Control: MT373 tumors
# Protocol: Tumor Lysate Preparation: Lysis buffer was added to tumor samples and homogenized using a TissueLyser LT. Homogenized samples were spun by centrifuge for 30 minutes at 20817×g, and the supernatant transferred to a 1.5-mL tube. Protein samples were quantified, aliquoted into 96-well plates, and stored at −80° C.
# Tumor lysates were diluted in blocking buffer such that the required protein amount is added to the plate in a 100 μL volume (WT p53 7.5 μg; mutant p53 2.5 μg; Total p53 2.5 μg). […] Plates were washed, and the reaction was developed using TMB for approximately 5 minutes and quenched with 0.16 M sulfuric acid. […] A background measurement was subtracted from the treated samples' signals. The signals were normalized to the respective vehicle controls.
smiles,measurement,setting,value
"CCn1c(C#CCNc2ccccc2)cc2cc(CNC3CCN(C)CC3)ccc21 [Compound 1, 1-Anilino-3-{1-ethyl-5-[(1-methyl-4-piperidylamino)methyl]-1H-indol-2-yl}-2-propyne]","Mutant p53 Protein, Percent Reduction Relative to Vehicle Control","75 mg/kg BIDx1 PO, 8 h",53.91%
same,"Total p53 Protein, Percent Reduction Relative to Vehicle Control","75 mg/kg BIDx1 PO, 8 h",35.06%
same,"WT p53 Protein, Fold Change over Vehicle Control","75 mg/kg BIDx1 PO, 8 h",1.25 fold
same,"Mutant p53 Protein, Percent Reduction Relative to Vehicle Control","75 mg/kg BIDx1 PO, 24 h",79.50%
same,"Total p53 Protein, Percent Reduction Relative to Vehicle Control","75 mg/kg BIDx1 PO, 24 h",72.38%
same,"WT p53 Protein, Fold Change over Vehicle Control","75 mg/kg BIDx1 PO, 24 h",1.13 fold
same,"Mutant p53 Protein, Percent Reduction Relative to Vehicle Control","75 mg/kg BIDx1 PO, 48 h",67.23%
same,"Total p53 Protein, Percent Reduction Relative to Vehicle Control","75 mg/kg BIDx1 PO, 48 h",63.03%
same,"WT p53 Protein, Fold Change over Vehicle Control","75 mg/kg BIDx1 PO, 48 h",1.02 fold
same,"Mutant p53 Protein, Percent Reduction Relative to Vehicle Control","75 mg/kg BIDx1 PO, 72 h",16.87%
same,"Total p53 Protein, Percent Reduction Relative to Vehicle Control","75 mg/kg BIDx1 PO, 72 h",19.65%
same,"WT p53 Protein, Fold Change over Vehicle Control","75 mg/kg BIDx1 PO, 72 h",1.11 fold
same,"Mutant p53 Protein, Percent Reduction Relative to Vehicle Control","75 mg/kg BIDx1 PO, 98 h",0.00%
same,"Total p53 Protein, Percent Reduction Relative to Vehicle Control","75 mg/kg BIDx1 PO, 98 h",0.00%
same,"WT p53 Protein, Fold Change over Vehicle Control","75 mg/kg BIDx1 PO, 98 h",1.13 fold
same,"Mutant p53 Protein, Percent Reduction Relative to Vehicle Control","75 mg/kg BIDx1 PO, […]",45.58%
same,"Total p53 Protein, Percent Reduction Relative to Vehicle Control","75 mg/kg BIDx1 PO, […]",44.67%
same,"WT p53 Protein, Fold Change over Vehicle Control","75 mg/kg BIDx1 PO, […]",0.88 fold
same,increase in WT conformation p53,"75 mg/kg BID×1 PO, 8 h",1.25 fold
same,"Mutant p53 Protein, Percent Reduction Relative to Vehicle Control","150 mg/kg BIDx1 PO, 8 h",82.30%
same,"Total p53 Protein, Percent Reduction Relative to Vehicle Control","150 mg/kg BIDx1 PO, 8 h",56.64%
same,"WT p53 Protein, Fold Change over Vehicle Control","150 mg/kg BIDx1 PO, 8 h",1.45 fold
same,"Mutant p53 Protein, Percent Reduction Relative to Vehicle Control","150 mg/kg BIDx1 PO, 24 h",93.74%
same,"Total p53 Protein, Percent Reduction Relative to Vehicle Control","150 mg/kg BIDx1 PO, 24 h",81.75%
same,"WT p53 Protein, Fold Change over Vehicle Control","150 mg/kg BIDx1 PO, 24 h",1.08 fold
same,"Mutant p53 Protein, Percent Reduction Relative to Vehicle Control","150 mg/kg BIDx1 PO, 48 h",81.64%
same,"Total p53 Protein, Percent Reduction Relative to Vehicle Control","150 mg/kg BIDx1 PO, 48 h",81.46%
same,"WT p53 Protein, Fold Change over Vehicle Control","150 mg/kg BIDx1 PO, 48 h",0.94 fold
same,"Mutant p53 Protein, Percent Reduction Relative to Vehicle Control","150 mg/kg BIDx1 PO, 72 h",58.64%
same,"Total p53 Protein, Percent Reduction Relative to Vehicle Control","150 mg/kg BIDx1 PO, 72 h",60.43%
same,"WT p53 Protein, Fold Change over Vehicle Control","150 mg/kg BIDx1 PO, 72 h",0.86 fold
same,"Mutant p53 Protein, Percent Reduction Relative to Vehicle Control","150 mg/kg BIDx1 PO, 98 h",0.00%
same,"Total p53 Protein, Percent Reduction Relative to Vehicle Control","150 mg/kg BIDx1 PO, 98 h",0.60%
same,"WT p53 Protein, Fold Change over Vehicle Control","150 mg/kg BIDx1 PO, 98 h",0.95 fold
same,"Mutant p53 Protein, Percent Reduction Relative to Vehicle Control","150 mg/kg BIDx1 PO, […]",34.14%
same,"Total p53 Protein, Percent Reduction Relative to Vehicle Control","150 mg/kg BIDx1 PO, […]",32.40%
same,"WT p53 Protein, Fold Change over Vehicle Control","150 mg/kg BIDx1 PO, […]",0.86 fold
same,increase in WT conformation p53,"150 mg/kg BID×1 PO, 8 h",1.45 fold
